Results taken from patent publication US8540999B2, “Allergenic proteins and peptides from Japanese cedar pollen” (Merck Patent GmbH, priority 1991, dated 2013).
Ends that are not written are not given here.

Legend:
[1] = test system: Cry j I reactive T cells; test: T cell proliferation assay, Cry j I primed T cell lines (Example 6); type: cell-based, human; settings: for T cell reactivity: Example 21 narrative, parent peptides of CJI-44.8; for T cell line response: panel of twenty-five patients, FIG. 14
Method: Viable cells were purified by LSM centrifugation and cultured in complete medium supplemented with 5 units recombinant human IL-2/ml and 5 units recombinant human IL-4/ml for up to three weeks until the cells no longer responded to lymphokines and were considered “rested”. The ability of the T cells to proliferate to selected peptides, recombinant Cry j I (rCry j I), purified native Cry j I, or recombinant Amb aI.1 (rAmb aI.1) or a positive control, phyto-hemaglutinin (PHA) was then assessed. For assay, 2×10^4 rested cells were restimulated in the presence of 2×10^4 autologous Epstein-Barr virus (EBV)-transformed B cells (prepared as described below) (gamma-irradiated with 25,000 RADS) with 2-50 μg/ml of selected peptides, Cry j I, purified native Cry j I or rAmb a I.1 or PHA, in a volume of 200 μl complete medium in duplicate or triplicate wells in 96-well round bottom plates for 2-4 days. […] Each well then received 1 μCi tritiated thymidine for 16-20 hours. The counts incorporated were collected onto glass fiber filter mats and processed for liquid scintillation counting. […] The titrations were used to optimize the dose of peptides in T cell assays. The maximum response in a titration of each peptide is expressed as the stimulation index (S.I.). The S.I. is the counts per minute (CPM) incorporated by cells in response to peptide, divided by the CPM incorporated by cells in medium only.
The above procedure was followed with a number of other patients. […] The bars represent the positivity index. Above each bar is the percent of positive responses with an S.I. of at least two to the peptide or protein in the group of patients tested. In parenthesis above each bar are the mean stimulation indices for each peptide or protein for the group of patients tested.
Autologous EBV-transformed cell lines were y-irradiated with 25,000 Rad and used as antigen presenting cells in secondary proliferation assays and secondary bulk stimulations. These EBV-transformed cell lines were made by incubating 5×10^6 PBL with 1 ml of B-59/8 Marmoset cell line (ATCC CRL1612, American Type Culture Collection, Rockville, Md.) conditioned medium in the presence of 1 μg/ml phorbol 12-myristate 13-acetate (PMA) at 37° C. for 60 minutes in 12×75 mm polypropylene round-bottom Falcon snap cap tubes (Becton Dickinson Labware, Lincoln Park, N.J.). These cells were then diluted to 1.25×10^6 cells/ml in RPMI-1640 as described above except supplemented with 10% heat-inactivated fetal bovine serum and cultured in 200 μl aliquots in flat bottom culture plates until visible colonies were detected. They were then transferred to larger wells until the cell lines were established.

[2] = test system: Cry j II reactive T cells; test: T cell proliferation assay, Cry j II primed T cell lines (Example 19); type: cell-based, human
Method: Long term T cell lines were established by stimulation of 2×10^6 PBL/ml in bulk cultures of complete medium (RPMI-1640, 2 mM L-glutamine, 100 U/ml penicillin/streptomycin, 5×10^−5M 2-mercaptoethanol, and 10 mM HEPES supplemented with 5% heat inactivated human AB serum) with 10 μg/ml of partially purified native Cry j II for 7 days at 37° C. in a humidified 5% CO2 incubator to select for Cry j II reactive T cells. This amount of priming antigen was determined to be optimal for the activation of T cells from most Japanese cedar pollen Cry j II allergic patients. Viable cells were purified by LSM centrifugation and cultured in complete medium supplemented with 5 units recombinant human IL-2/ml and 5 units recombinant human IL-4/ml for up to three weeks until the cells no longer responded to lymphokines and were considered “rested”. The ability of the T cells to proliferate to peptides Cry j IIA (SEQ ID NO: 185) and Cry j IIB (SEQ ID NO: 186), recombinant Cry j II (rCry j II) (SEQ ID NO: 134), purified native Cry j II, was then assessed. For assay, 2×10^4 rested cells were restimulated in the presence of 2×10^4 autologous Epstein-Barr virus (EBV)-transformed B cells (prepared as described in Example 6) (gamma-irradiated with 25,000 RADS) with 2-50 ’g/ml of rCry j II (SEQ ID NO: 134), purified native Cry j II, peptides Cry j IIA (SEQ ID NO: 185) and Cry j IIB (SEQ ID NO: 186), positive control (PHA), negative control (Amb a I.1), in a volume of […] complete medium in duplicate or triplicate wells in 96-well round bottom plates for 2-4 days. […] Each well then received 1 μCi tritiated thymidine for 16-20 hours. The counts incorporated were collected onto glass fiber filter mats and processed for liquid scintillation counting. The maximum response in a titration of each peptide is expressed as the stimulation index (S.I.). The S.I. is the counts per minute (CPM) incorporated by cells in response to peptide, divided by the CPM incorporated by cells in medium only. A positivity index may be calculated by multiplying the mean S.I. (indicated above each bar in FIGS. 42 and 43) by the percentage of individuals responding to the peptide (indicated in parentheses above each bar in FIGS. 42 and 43). […]

[3] = Stability in aqueous buffer; type: physicochemical; settings: pH6 to pH8
Text: (§1) Of the above group of modified peptides, several peptides have been identified as “unique” modified peptides. […] Certain modified peptides are characterized as “unique” due to the difficulties encountered when developing a modified peptide which meets all of the stringent requirements of a “unique” peptide defined herein. In many cases, multiple modifications of a parent peptide are attempted prior to identifying a modified derivitive peptide which meets all the characteristics of a “unique” modified peptide. Unique modified peptides are particularly useful as candidate peptides for formulating injectable multipeptide therapeutic formulations of the invention because “unique” modified peptides are soluble and stable in the same physiologically acceptable pH range as well as elicit the necessary T cell reactivity of a therapeutic peptide of the invention. “Unique” modified peptides of the invention include but are not limited to the following group of modified peptides: CJ1-24.5, CJ1-43.39, CJ1-43.50, CJ1-44.8, and CJ1-44.9 all as shown in FIGS. 20 and 44. Example 21 describes the development and identification of “unique” modified peptides of the invention.
(§2) Additional truncation of two C-terminal residues yielded 44.2 (SEQ ID NO: ). […] Thus, 44.2 (SEQ ID NO: ) was further modified by the addition of charged (hydrophilic residues) to the N-terminus and by replacement of the hydrophobic residue Val with the less hydrophobic residue Ala. […] CJI-44.8 (SEQ ID NO: 132) was stable and soluble at greater than 5 mg/ml over the pH range pH6-pH8 in an aqueous buffer.

[4] = Solubility, pH range protocol procedure; type: physicochemical; settings: pH range pH6 to pH8
Text: as §1, §2

[5] = test system: patients' plasma IgE; test: Direct binding assay of IgE to Cry j I, Cry j II and recombinant Cry j II (Example 18); set-up: species or system human
Method: Costar assay plates were coated with Cry j I or Cry j II at 2 μg/mL or recombinant Cry j II preparation at 10 μg/mL (approximately 20% pure) in a volume of 50 μL overnight at 4° C. The coating antigens were removed and the wells were blocked with 0.5% gelatin, PVP (polyvinyl pyrolidine) 1 mg/mL in PBS, 200 μL/well for 2 hours at room temperature. The anti-Cry j I monoclonal antibody, 4B11, was serially diluted in PBS-Tween 20 starting at a 1:1000 dilution. The human plasma were serially diluted in PBS-Tween at a starting dilution of 1:2. For this set 23 plasma samples from patients symptomatic for Japanese cedar pollen allergy chosen for IgE binding analysis. The first antibody incubation proceeded overnight at 4° C. Following three washes with PBS-Tween the second antibodies were added (biotinylated goat anti-mouse Ig or goat anti-human IgE both at 1:2000) and incubated for two hours at room temperature at 100 μL/well. After washing 3 times, […]. This solution was removed and streptavidin-HRPO diluted to 1:10,000, was added at 100 μL/well. The color was allowed to develop for 2-5 minutes. The reaction was stopped by the addition of 100 μL/well of 1M phosphoric acid. Plates were read on a Microplate IL310 Autoreader (Biotek Instruments, Winooski, Vt.) with a 450 nm filter. The absorbance levels of duplicate wells were averaged. A positive binding result, indicated by a plus sign is determined to be a reading of two-fold or greater above background (no first antibody) at the second dilution of plasma ([…]).

[6] = aqueous sodium phosphate buffer

## CJ1-31: Cry j I peptide, SEQ ID NO: 56 (DVFYNGAYFVSSGKYEGGNI; listed as Cryptomeria japonica)
[1]
  T cell reactivity: high T-cell reactivity
  T cell line response: responded

## CJ1-32: Cry j I peptide, SEQ ID NO: 57 (SSGKYEGGNIYTKKEAFNVE; listed as Cryptomeria japonica)
[1]
  T cell reactivity: high T-cell reactivity
  T cell line response: responded

## Cry j IIG: SEQ ID NO: 191, amino acids 152-175 of Cry j II (GKGVIDGQGKQWWAGQCKWVNGRE; listed as Cryptomeria japonica)
[2]; 9 patients, FIG. 43
  T cell proliferative response: react

## Cry j IIH: SEQ ID NO: 192, amino acids 386-409 of Cry j II (DSMPCKDIKLSDISLKLTSGKIAS; listed as Cryptomeria japonica)
[2]; 9 patients, FIG. 43
  T cell proliferative response: react

## DDAYSDDKSMKVTVAFNQFGDE [CJ1-43.39]
[3]
  stability: stable
[4]; [6]
  solubility: > 5000 µg/mL

## DEEGAYFVSSGKYEGGNIYTKKEAFNVEDE [CJ1-44.9]
[3]
  stability: stable
[4]; aqueous buffer
  solubility: > 5000 µg/mL

## DKEPRARYGLVHVANNNYDPWTIEEE [CJ1-24.5]
[3]
  stability: stable
[4]; [6]
  solubility: > 5000 µg/mL

## KSMKVTVAFNQARK [CJ1-43.50]
[3]
  stability: stable
[4]; aqueous buffer
  solubility: > 5000 µg/mL

B1: rCry j II: recombinant Cry j II expressed in E. coli with His6 leader (protein, listed as Cryptomeria japonica)
chain: MAMKLIAPMAFLAMQLIIMAAAEDQSAQIMLDSVVEKYLRSNRSLRKVEHSRHDAINIFNVEKYGAVGDGKHDCTEAFSTAWQAACKNPSAMLLVPGSKKFVVNNLFFNGPCQPHFTFKVDGIIAAYQNPASWKNNRIWLQFAKLTGFTLMGKGVIDGQGKQWWAGQCKWVNGREICNDRDRPTAIKFDFSTGLIIQGLKLMNSPEFHLVFGNCEGVKIIGISITAPRDSPNTDGIDIFASKNFHLQKNTIGTGDDCVAIGTGSSNIVIEDLICGPGHGISIGSLGRENSRAEVSYVHVNGAKFIDTQNGLRIKTWQGGSGMASHIIYENVEMINSENPILINQFYCTSASACQNQRSAVQIQDVTYKNIRGTSATAAAIQLKCSDSMPCKDIKLSDISLKLTSGKIASCLNDNANGYFSGHVIPACKNLSPSAKRKESKSHKHPKTVMVENMRAYDKGNRTRILLGSRPPNCTNKCHGCSPCKAKLVIVHRIMPQEYYPQRWICSCHGKIYHP
[2]; 9 patients, FIG. 43
  T cell proliferative response: react
[2]; n=6 patients, FIG. 42
  T cell proliferative response: respond well
[5]; patient #1034
  plasma IgE binding response: negative
[5]; patient plasma samples, FIGS. 31-33
  plasma IgE binding response: further reduction in binding
[5]; patients #1143 and #1146
  plasma IgE binding response: clearly positive

B2: Cry j IIC: recombinant peptide, amino acids 46-163 of Cry j II, SEQ ID NO: 187 (protein, listed as Cryptomeria japonica)
chain: MGHHHHHHEFRKVEHSRHDAINIFNVEKYGAVGDGKHDCTEAFSTAWQAACKNPSAMLLVPGSKKFVVNNLFFNGPCQPHFTFKVDGIIAAYQNPASWKNNRIWLQFAKLTGFTLMGKGVIDGQGKQW
[2]; 9 patients, FIG. 43
  T cell proliferative response: react

B3: Cry j IID: recombinant peptide, amino acids 164-280 of Cry j II, SEQ ID NO: 188 (protein, listed as Cryptomeria japonica)
chain: MGHHHHHHEFWAGQCKWVNGREICNDRDRPTAIKFDFSTGLIIQGLKLMNSPEFHLVFGNCEGVKIIGISITAPRDSPNTDGIDIFASKNFHLQKNTIGTGDDCVAIGTGSSNIVIEDLICGPGHGI
[2]; 9 patients, FIG. 43
  T cell proliferative response: react

B4: Cry j IIE: recombinant peptide, amino acids 281-396 of Cry j II, SEQ ID NO: 189 (protein, listed as Cryptomeria japonica)
chain: MGHHHHHHEFSIGSLGRENSRAEVSYVHVNGAKFIDTQNGLRIKTWQGGSGMASHIIYENVEMINSENPILINQFYCTSASACQNQRSAVQIQDVTYKNIRGTSATAAAIQLKCSDSMPCKDIKLSD
[2]; 9 patients, FIG. 43
  T cell proliferative response: react

B5: Cry j IIF: recombinant peptide, amino acids 397-514 of Cry j II, SEQ ID NO: 190 (protein, listed as Cryptomeria japonica)
chain: MGHHHHHHEFISLKLTSGKIASCLNDNANGYFSGHVIPACKNLSPSAKRKESKSHKHPKTVMVENMRAYDKGNRTRILLGSRPPNCTNKCHGCSPCKAKLVIVHRIMPQEYYPQRWICSCHGKIYHP
[2]; 9 patients, FIG. 43
  T cell proliferative response: react
